Assay results published in ChEMBL document CHEMBL5543147, “Discovery and Characterization of a Novel Cereblon-Recruiting PRC1 Bridged PROTAC Degrader” (J Med Chem, 2024).
Active and inactive are the calls of the source. The calls are words filed in the database; no cut-off is given here.

How the values were obtained:
[1] = target: T1, Protein cereblon/Polycomb complex protein BMI-1 (Homo sapiens, UniProt Q96SW2+P35226); assay: PROTAC activity at […] in human K562 cells assessed as degradation of BMI1 protein expression at 10 uM incubated for 20 hrs in presence of MG132 by Western blotting analysis; assay type: cell-based
Target sequence in this assay (P35226 whole entry, looked up): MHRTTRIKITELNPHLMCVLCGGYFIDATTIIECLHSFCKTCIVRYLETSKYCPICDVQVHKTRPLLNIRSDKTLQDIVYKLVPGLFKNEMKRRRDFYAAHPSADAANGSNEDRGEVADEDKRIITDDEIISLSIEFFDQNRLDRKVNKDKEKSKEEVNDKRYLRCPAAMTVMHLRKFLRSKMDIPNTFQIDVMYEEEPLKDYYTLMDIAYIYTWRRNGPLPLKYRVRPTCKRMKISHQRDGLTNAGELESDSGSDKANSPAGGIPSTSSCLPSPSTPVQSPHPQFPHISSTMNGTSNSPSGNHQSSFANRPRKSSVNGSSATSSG
Target sequence in this assay (Q96SW2 whole entry, looked up): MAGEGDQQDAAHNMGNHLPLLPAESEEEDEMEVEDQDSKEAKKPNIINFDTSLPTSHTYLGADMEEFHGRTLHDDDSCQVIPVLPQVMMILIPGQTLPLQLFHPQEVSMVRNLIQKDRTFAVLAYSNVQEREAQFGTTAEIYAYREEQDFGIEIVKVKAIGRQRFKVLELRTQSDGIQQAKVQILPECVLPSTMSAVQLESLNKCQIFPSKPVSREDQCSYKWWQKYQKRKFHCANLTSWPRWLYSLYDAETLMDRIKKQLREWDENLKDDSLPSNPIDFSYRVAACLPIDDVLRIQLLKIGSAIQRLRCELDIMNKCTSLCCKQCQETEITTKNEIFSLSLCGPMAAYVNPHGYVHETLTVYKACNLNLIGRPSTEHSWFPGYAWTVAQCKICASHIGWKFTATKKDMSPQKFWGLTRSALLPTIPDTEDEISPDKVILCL

[2] = target: T2, Protein cereblon/E3 ubiquitin-protein ligase RING2 (Homo sapiens, UniProt Q96SW2+Q99496); assay: PROTAC activity at CRBN/RING1B in human PC-3M cells assessed as degradation of RING1B protein expression at 5 uM incubated for 24 hrs by Western blotting analysis; assay type: cell-based
Target sequence in this assay (Q96SW2 whole entry): as the sequence (Q96SW2 whole entry, looked up) above
Target sequence in this assay (Q99496 2-336 partner limits assumed): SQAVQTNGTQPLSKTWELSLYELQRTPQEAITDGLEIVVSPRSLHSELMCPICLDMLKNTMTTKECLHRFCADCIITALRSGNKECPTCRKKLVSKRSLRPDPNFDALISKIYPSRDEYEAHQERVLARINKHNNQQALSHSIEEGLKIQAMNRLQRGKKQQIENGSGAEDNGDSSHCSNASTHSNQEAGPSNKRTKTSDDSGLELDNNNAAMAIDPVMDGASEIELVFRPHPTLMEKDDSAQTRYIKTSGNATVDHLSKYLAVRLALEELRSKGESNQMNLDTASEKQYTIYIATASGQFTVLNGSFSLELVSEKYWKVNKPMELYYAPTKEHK

[3] = target: T1, Protein cereblon/Polycomb complex protein BMI-1; assay: PROTAC activity at CRBN/BIM1 in human PC-3M cells assessed as degradation of BMI1 protein expression at 5 uM incubated for 24 hrs by Western blotting analysis; assay type: cell-based
Target sequence in this assay (P35226 whole entry, looked up): as the sequence (P35226 whole entry, looked up) above
Target sequence in this assay (Q96SW2 whole entry, looked up): as the sequence (Q96SW2 whole entry, looked up) above

[4] = system: MDA-MB-468; assay: Induction of PRC1 degradation in human MDA-MB-468 cells assessed as reduction of H2AK119ub chromatin mark at 5 uM incubated for 24 hrs by Western blotting analysis; assay type: cell-based
[5] = target: T2, Protein cereblon/E3 ubiquitin-protein ligase RING2; assay: PROTAC activity at CRBN/RING1B in human K562 cells assessed as degradation of RING1B mRNA expression at 10 uM incubated for 20 hrs by RT-qPCR analysis; assay type: cell-based
Target sequence in this assay (Q96SW2 whole entry): as the sequence (Q96SW2 whole entry, looked up) above
Target sequence in this assay (Q99496 2-336 partner limits assumed): as the sequence (Q99496 2-336 partner limits assumed) above

[6] = target: T2, Protein cereblon/E3 ubiquitin-protein ligase RING2; assay: PROTAC activity at CRBN/RING1B in human PC-3M cells assessed as degradation of RING1B protein expression at 1 uM incubated for 24 hrs by Western blotting analysis; assay type: cell-based
Target sequence in this assay (Q96SW2 whole entry): as the sequence (Q96SW2 whole entry, looked up) above
Target sequence in this assay (Q99496 2-336 partner limits assumed): as the sequence (Q99496 2-336 partner limits assumed) above

[7] = target: T2, Protein cereblon/E3 ubiquitin-protein ligase RING2; assay: PROTAC activity at CRBN/RING1B in human 786-0 cells with defective VHL assessed as degradation of RING1B protein expression at 10 uM incubated for 24 hrs by Western blotting analysis; assay type: cell-based
Target sequence in this assay (Q96SW2 whole entry): as the sequence (Q96SW2 whole entry, looked up) above
Target sequence in this assay (Q99496 2-336 partner limits assumed): as the sequence (Q99496 2-336 partner limits assumed) above

[8] = system: MDA-MB-468; assay: Inhibition of colony formation in human MDA-MB-468 cells at 1 to 10 uM incubated for 14 days by crystal violet staining based assay; assay type: functional, cell-based; details: dose 1-10 µM, time 14.0 day
[9] = system: MDA-MB-468; assay: Antiproliferative activity against human MDA-MB-468 cells assessed as inhibition of cell growth at 1 to 10 uM incubated for 5 days by WST-8 assay; assay type: functional, cell-based; details: dose 1-10 µM, time 5.0 day
[10] = system: PC-3M; assay: Induction of PRC2 degradation in human PC-3M cells assessed as reduction of H3K27me3 chromatin mark at 1 uM incubated for 24 hrs by Western blotting analysis; assay type: cell-based
[11] = target: T2, Protein cereblon/E3 ubiquitin-protein ligase RING2; assay: PROTAC activity at CRBN/RING1B in human MDA-MB-468 cells assessed as degradation of RING1B protein expression at 5 uM incubated for 24 hrs by Western blotting analysis; assay type: cell-based
Target sequence in this assay (Q96SW2 whole entry): as the sequence (Q96SW2 whole entry, looked up) above
Target sequence in this assay (Q99496 2-336 partner limits assumed): as the sequence (Q99496 2-336 partner limits assumed) above

[12] = target: T1, Protein cereblon/Polycomb complex protein BMI-1; assay: PROTAC activity at CRBN/BIM1 in human MDA-MB-468 cells assessed as degradation of BMI1 protein expression at 5 uM incubated for 24 hrs by Western blotting analysis; assay type: cell-based
Target sequence in this assay (P35226 whole entry, looked up): as the sequence (P35226 whole entry, looked up) above
Target sequence in this assay (Q96SW2 whole entry, looked up): as the sequence (Q96SW2 whole entry, looked up) above

[13] = system: K562; assay: Induction of PRC1 degradation in human K562 cells assessed as reduction of H2AK119ub chromatin mark at 0.1 to 10 uM incubated for 24 hrs by Western blotting analysis; assay type: cell-based; details: dose 0.1-10 µM
[14] = target: von Hippel-Lindau disease tumor suppressor/Polycomb complex protein BMI-1 (Homo sapiens) (UniProt P40337+P35226); assay: PROTAC activity at […] in human 786-0 cells with defective VHL assessed as degradation of BMI1 protein expression at 10 uM incubated for 24 hrs by Western blotting analysis; assay type: cell-based
von Hippel-Lindau disease tumor suppressor/Polycomb complex protein BMI-1 (Homo sapiens), sequence (P35226 whole entry, looked up): as the sequence (P35226 whole entry, looked up) above
von Hippel-Lindau disease tumor suppressor/Polycomb complex protein BMI-1 (Homo sapiens), sequence (P40337 whole entry, looked up): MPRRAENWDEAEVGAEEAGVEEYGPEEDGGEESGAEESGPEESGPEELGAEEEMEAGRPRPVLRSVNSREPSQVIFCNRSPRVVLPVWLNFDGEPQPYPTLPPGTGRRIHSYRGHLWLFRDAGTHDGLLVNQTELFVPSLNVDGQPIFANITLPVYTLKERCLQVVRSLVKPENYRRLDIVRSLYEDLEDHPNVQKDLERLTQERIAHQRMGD

[15] = target: T3, Protein cereblon/Histone-lysine N-methyltransferase EZH2 (Homo sapiens) (UniProt Q15910+Q96SW2); assay: PROTAC activity at CRBN/EZH2 in human PC-3M cells assessed as degradation of EZH2 protein expression at 0.2 to 5 uM incubated for 24 hrs by Western blotting analysis; assay type: cell-based; details: dose 0.2-5 µM
T3 sequence (Q15910 whole entry, looked up): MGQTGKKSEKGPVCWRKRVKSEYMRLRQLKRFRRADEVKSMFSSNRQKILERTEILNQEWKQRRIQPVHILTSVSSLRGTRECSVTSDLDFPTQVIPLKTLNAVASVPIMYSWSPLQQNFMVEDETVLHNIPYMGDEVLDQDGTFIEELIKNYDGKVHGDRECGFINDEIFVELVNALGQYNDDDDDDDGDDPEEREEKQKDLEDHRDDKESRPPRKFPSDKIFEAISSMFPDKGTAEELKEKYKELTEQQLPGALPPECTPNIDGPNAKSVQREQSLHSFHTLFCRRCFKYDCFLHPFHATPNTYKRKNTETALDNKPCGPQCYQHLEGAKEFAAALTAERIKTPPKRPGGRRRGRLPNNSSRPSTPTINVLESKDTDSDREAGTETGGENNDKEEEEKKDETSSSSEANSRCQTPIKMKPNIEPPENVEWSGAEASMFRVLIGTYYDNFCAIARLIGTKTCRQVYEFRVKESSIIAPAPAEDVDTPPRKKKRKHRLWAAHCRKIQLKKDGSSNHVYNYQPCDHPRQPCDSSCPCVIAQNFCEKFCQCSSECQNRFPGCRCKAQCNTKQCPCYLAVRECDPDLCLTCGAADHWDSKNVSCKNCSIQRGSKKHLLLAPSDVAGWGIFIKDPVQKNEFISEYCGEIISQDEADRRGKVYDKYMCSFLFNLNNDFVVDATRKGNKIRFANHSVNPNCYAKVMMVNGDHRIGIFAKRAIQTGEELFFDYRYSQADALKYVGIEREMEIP
T3 sequence (Q96SW2 whole entry, looked up): as the sequence (Q96SW2 whole entry, looked up) above

[16] = target: T1, Protein cereblon/Polycomb complex protein BMI-1; assay: PROTAC activity at […] in human K562 cells assessed as degradation of BMI1 protein expression at 10 uM measured after 4 hrs by Western blotting analysis; assay type: cell-based
Target sequence in this assay (P35226 whole entry, looked up): as the sequence (P35226 whole entry, looked up) above
Target sequence in this assay (Q96SW2 whole entry, looked up): as the sequence (Q96SW2 whole entry, looked up) above

[17] = target: Protein cereblon/Polycomb protein EED (Homo sapiens, UniProt O75530+Q96SW2); assay: PROTAC activity at CRBN/EED in human K562 cells assessed as degradation of EED protein expression incubated for 24 hrs by Western blotting analysis; assay type: cell-based
[18] = system: 786-0; assay: Antiproliferative activity against human 786-0 cells assessed as inhibition of cell growth at 15 uM incubated for 7 days by WST-8 assay; assay type: functional, cell-based; details: time 7.0 day
[19] = Drug concentration in Swiss albino mouse plasma at 50 mg/kg,ip administration measured after 8 hrs by LC-MS/MS analysis; assay type: ADME, organism-based
[20] = system: K562; assay: Antiproliferative activity against human K562 cells assessed as fold increase in HoxA mRNA expression at 10 uM incubated for 24 hrs by RT-qPCR analysis; assay type: functional
[21] = target: T3, Protein cereblon/Histone-lysine N-methyltransferase EZH2 (Homo sapiens); assay: PROTAC activity at CRBN/EZH2 in human MDA-MB-468 cells assessed as degradation of EZH2 protein expression at 5 uM incubated for 24 hrs by Western blotting analysis; assay type: cell-based
[22] = target: T1, Protein cereblon/Polycomb complex protein BMI-1; assay: PROTAC activity at […] in human K562 cells assessed as degradation of BMI1 protein expression at 10 uM incubated for 20 hrs in presence of pomalidomide by Western blotting analysis; assay type: cell-based
Target sequence in this assay (P35226 whole entry, looked up): as the sequence (P35226 whole entry, looked up) above
Target sequence in this assay (Q96SW2 whole entry, looked up): as the sequence (Q96SW2 whole entry, looked up) above

[23] = target: T2, Protein cereblon/E3 ubiquitin-protein ligase RING2; assay: PROTAC activity at CRBN/RING1B in human K562 cells assessed as degradation of RING1B protein expression incubated for 24 hrs by Western blotting analysis; assay type: cell-based
Target sequence in this assay (Q96SW2 whole entry): as the sequence (Q96SW2 whole entry, looked up) above
Target sequence in this assay (Q99496 whole entry): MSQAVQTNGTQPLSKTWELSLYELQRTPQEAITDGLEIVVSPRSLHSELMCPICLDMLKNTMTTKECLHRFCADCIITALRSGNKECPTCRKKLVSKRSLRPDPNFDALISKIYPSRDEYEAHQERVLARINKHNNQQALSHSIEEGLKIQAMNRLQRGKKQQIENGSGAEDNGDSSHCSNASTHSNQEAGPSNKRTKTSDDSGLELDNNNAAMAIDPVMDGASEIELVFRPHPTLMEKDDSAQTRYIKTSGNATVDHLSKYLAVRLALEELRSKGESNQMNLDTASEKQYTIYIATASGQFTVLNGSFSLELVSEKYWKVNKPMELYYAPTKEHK

[24] = system: 786-0; assay: Induction of PRC1 degradation in human 786-0 cells with defective VHL assessed as reduction of H2AK119ub chromatin mark at 10 uM incubated for 24 hrs by Western blotting analysis; assay type: cell-based
[25] = target: T1, Protein cereblon/Polycomb complex protein BMI-1; assay: PROTAC activity at CRBN/BIM1 in human K562 cells assessed as degradation of BMI1 protein expression incubated for 24 hrs by Western blotting analysis; assay type: cell-based
[26] = system: K562; assay: Antiproliferative activity against human K562 cells assessed as cell growth inhibition incubated for 7 days by WST-8 assay; assay type: functional; details: K562, 168 h, time 7 day
[27] = target: T1, Protein cereblon/Polycomb complex protein BMI-1; assay: PROTAC activity at CRBN/BIM1 in human PC-3M cells assessed as degradation of BMI1 protein expression at 1 uM incubated for 24 hrs by Western blotting analysis; assay type: cell-based
Target sequence in this assay (P35226 whole entry, looked up): as the sequence (P35226 whole entry, looked up) above
Target sequence in this assay (Q96SW2 whole entry, looked up): as the sequence (Q96SW2 whole entry, looked up) above

[28] = system: MDA-MB-468; assay: Induction of PRC2 degradation in human MDA-MB-468 cells assessed as reduction of H3K27me3 chromatin mark at 5 uM incubated for 24 hrs by Western blotting analysis; assay type: cell-based
[29] = target: T2, Protein cereblon/E3 ubiquitin-protein ligase RING2; assay: PROTAC activity at CRBN/RING1B in human K562 cells assessed as degradation of RING1B protein expression at 10 uM incubated for 20 hrs in presence of pomalidomide by Western blotting analysis; assay type: cell-based
Target sequence in this assay (Q96SW2 whole entry): as the sequence (Q96SW2 whole entry, looked up) above
Target sequence in this assay (Q99496 2-336 partner limits assumed): as the sequence (Q99496 2-336 partner limits assumed) above

[30] = target: Cereblon/Ikaros (Homo sapiens) (UniProt Q96SW2+Q13422); assay: PROTAC activity at CRBN/IKZF1 in human K562 cells assessed as degradation of IKZF1 protein at 0.1 to 10 uM incubated for 4 hrs by Western blotting analysis; assay type: cell-based; details: dose 0.1-10 µM
[31] = system: K562; assay: Antiproliferative activity against human K562 cells assessed as fold increase in HoxD mRNA expression at 10 uM incubated for 24 hrs by RT-qPCR analysis; assay type: functional

Question: For O=C(CNc1cccc2c1C(=O)N(C1CCC(=O)NC1=O)C2=O)NCCCCN1CCN(c2ccc(-c3cnc(NCc4ccco4)n4cnnc34)cc2)CC1 (stereo unspecified), which Activity [1] is on record?
Answer: inactive

Question: What about the Activity [2] of the same compound?
Answer: Active

Question: And the Activity [3]?
Answer: Active

Question: What about the Activity [4] of the same compound?
Answer: Active

Question: What about the Activity [5] of the same compound?
Answer: inactive

Question: And the Activity [6]?
Answer: Active

Question: What about the Activity [7] of the same compound?
Answer: Active

Question: And the inhibition [8]?
Answer: Active

Question: What about the Activity [9] of the same compound?
Answer: Active

Question: And the Activity [10]?
Answer: inactive

Question: What about the Activity [11] of the same compound?
Answer: Active

Question: What about the Activity [12] of the same compound?
Answer: Active

Question: And the Activity [13]?
Answer: Active

Question: What about the Activity [14] of the same compound?
Answer: Active

Question: What about the Activity [15] of the same compound?
Answer: inactive

Question: And the Activity [16]?
Answer: Active

Question: And the DC50 [17]?
Answer: 3300 nM

Question: What about the Activity [18] of the same compound?
Answer: Active

Question: What about the concentration at 8 h [19] of the same compound?
Answer: > 500 nM

Question: What about the “fold change (FC)” value [20] of the same compound?
Answer: 3.1

Question: And the Activity [21]?
Answer: inactive

Question: What about the Activity [22] of the same compound?
Answer: inactive

Question: And the DC50 [23]?
Answer: 1300 nM

Question: What about the Activity [24] of the same compound?
Answer: Active

Question: And the DC50 [25]?
Answer: 1700 nM

Question: And the GI50 [26]?
Answer: 3700 nM

Question: And the Activity [27]?
Answer: Active

Question: And the Activity [28]?
Answer: inactive

Question: And the Activity [29]?
Answer: inactive

Question: And the Activity [30]?
Answer: inactive

Question: What about the “fold change (FC)” value [31] of the same compound?
Answer: 2.3
